# Experiment: MALDI-TOF screening of Ni^2+ dependent hydrolysis in a combinatorial peptide library
# Assay type: physicochemical
# Conditions: CH3CO-Gly-Ala-Ser-X-His-Z-Lys-Phe-Leu-NH2 library, Ni^2+ 2 mM, pH 8.2, 10 mM Tris, score=24/tm
# Method in brief: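 Peptide sublibraries CH3CO-Gly-Ala-Ser/Thr-X-His-Z-Lys-Phe-Leu-NH2 (1 mM total) incubated with 2 mM Ni^2+ in 10 mM Tris pH 8.2 at 37 °C and 45 °C. Hydrolysis products, plus loss of substrate signals, detected by MALDI-TOF at 2, 4, 6 and 8 h; residues X and Z scored and ranked.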
substance,measurement,setting,value
Ac-GASLHNKFL-NH2 [SLHN],hydrolysis score from MALDI-TOF screening,37° C.,0 (a score of 0 if no trace of the product of hydrolysis was seen after 8 hours of incubation)
same,hydrolysis score from MALDI-TOF screening,45° C.,0 (a score of 0 if no trace of the product of hydrolysis was seen after 8 hours of incubation)
Ac-GASLHPKFL-NH2 [SLHP],hydrolysis score from MALDI-TOF screening,37° C.,0 (a score of 0 if no trace of the product of hydrolysis was seen after 8 hours of incubation)
same,hydrolysis score from MALDI-TOF screening,45° C.,0 (a score of 0 if no trace of the product of hydrolysis was seen after 8 hours of incubation)
Ac-GASLHQKFL-NH2 [SLHQ],hydrolysis score from MALDI-TOF screening,37° C.,0 (a score of 0 if no trace of the product of hydrolysis was seen after 8 hours of incubation)
same,hydrolysis score from MALDI-TOF screening,45° C.,0 (a score of 0 if no trace of the product of hydrolysis was seen after 8 hours of incubation)
Ac-GASLHRKFL-NH2 [SLHR],hydrolysis score from MALDI-TOF screening,37° C.,3 (a score of 3 for detection at 8 hours)
same,hydrolysis score from MALDI-TOF screening,45° C.,4 (a score of 4 for detection at 6 hours)
Ac-GASLHSKFL-NH2 [SLHS],hydrolysis score from MALDI-TOF screening,37° C.,0 (a score of 0 if no trace of the product of hydrolysis was seen after 8 hours of incubation)
same,hydrolysis score from MALDI-TOF screening,45° C.,0 (a score of 0 if no trace of the product of hydrolysis was seen after 8 hours of incubation)
Ac-GASLHTKFL-NH2 [SLHT],hydrolysis score from MALDI-TOF screening,37° C.,0 (a score of 0 if no trace of the product of hydrolysis was seen after 8 hours of incubation)
same,hydrolysis score from MALDI-TOF screening,45° C.,0 (a score of 0 if no trace of the product of hydrolysis was seen after 8 hours of incubation)
Ac-GASLHVKFL-NH2 [SLHV],hydrolysis score from MALDI-TOF screening,37° C.,0 (a score of 0 if no trace of the product of hydrolysis was seen after 8 hours of incubation)
same,hydrolysis score from MALDI-TOF screening,45° C.,3 (a score of 3 for detection at 8 hours)
Ac-GASLHWKFL-NH2 [SLHW],hydrolysis score from MALDI-TOF screening,37° C.,3 (a score of 3 for detection at 8 hours)
same,hydrolysis score from MALDI-TOF screening,45° C.,4 (a score of 4 for detection at 6 hours)
Ac-GASLHYKFL-NH2 [SLHY],hydrolysis score from MALDI-TOF screening,37° C.,0 (a score of 0 if no trace of the product of hydrolysis was seen after 8 hours of incubation)
same,hydrolysis score from MALDI-TOF screening,45° C.,3 (a score of 3 for detection at 8 hours)
Ac-GASMHAKFL-NH2 [SMHA],hydrolysis score from MALDI-TOF screening,37° C.,0 (a score of 0 if no trace of the product of hydrolysis was seen after 8 hours of incubation)
same,hydrolysis score from MALDI-TOF screening,45° C.,3 (a score of 3 for detection at 8 hours)
Ac-GASMHDKFL-NH2 [SMHD],hydrolysis score from MALDI-TOF screening,37° C.,0 (a score of 0 if no trace of the product of hydrolysis was seen after 8 hours of incubation)
same,hydrolysis score from MALDI-TOF screening,45° C.,0 (a score of 0 if no trace of the product of hydrolysis was seen after 8 hours of incubation)
Ac-GASMHEKFL-NH2 [SMHE],hydrolysis score from MALDI-TOF screening,37° C.,0 (a score of 0 if no trace of the product of hydrolysis was seen after 8 hours of incubation)
same,hydrolysis score from MALDI-TOF screening,45° C.,0 (a score of 0 if no trace of the product of hydrolysis was seen after 8 hours of incubation)
Ac-GASMHFKFL-NH2 [SMHF],hydrolysis score from MALDI-TOF screening,37° C.,3 (a score of 3 for detection at 8 hours)
same,hydrolysis score from MALDI-TOF screening,45° C.,4 (a score of 4 for detection at 6 hours)
Ac-GASMHGKFL-NH2 [SMHG],hydrolysis score from MALDI-TOF screening,37° C.,0 (a score of 0 if no trace of the product of hydrolysis was seen after 8 hours of incubation)
same,hydrolysis score from MALDI-TOF screening,45° C.,0 (a score of 0 if no trace of the product of hydrolysis was seen after 8 hours of incubation)
Ac-GASMHHKFL-NH2 [SMHH],hydrolysis score from MALDI-TOF screening,37° C.,0 (a score of 0 if no trace of the product of hydrolysis was seen after 8 hours of incubation)
same,hydrolysis score from MALDI-TOF screening,45° C.,3 (a score of 3 for detection at 8 hours)
Ac-GASMHIKFL-NH2 [SMHI],hydrolysis score from MALDI-TOF screening,37° C.,4 (a score of 4 for detection at 6 hours)
same,hydrolysis score from MALDI-TOF screening,45° C.,"12 (a score of 12, if it was seen to be partially hydrolysed at 2 hours)"
Ac-GASMHKKFL-NH2 [SMHK],hydrolysis score from MALDI-TOF screening,37° C.,3 (a score of 3 for detection at 8 hours)
same,hydrolysis score from MALDI-TOF screening,45° C.,6 (a score of 6 for detection at 4 hours)
Ac-GASMHLKFL-NH2 [SMHL],hydrolysis score from MALDI-TOF screening,37° C.,4 (a score of 4 for detection at 6 hours)
same,hydrolysis score from MALDI-TOF screening,45° C.,"12 (a score of 12, if it was seen to be partially hydrolysed at 2 hours)"
Ac-GASMHMKFL-NH2 [SMHM],hydrolysis score from MALDI-TOF screening,37° C.,3 (a score of 3 for detection at 8 hours)
same,hydrolysis score from MALDI-TOF screening,45° C.,3 (a score of 3 for detection at 8 hours)
Ac-GASMHNKFL-NH2 [SMHN],hydrolysis score from MALDI-TOF screening,37° C.,0 (a score of 0 if no trace of the product of hydrolysis was seen after 8 hours of incubation)
same,hydrolysis score from MALDI-TOF screening,45° C.,0 (a score of 0 if no trace of the product of hydrolysis was seen after 8 hours of incubation)
Ac-GASMHPKFL-NH2 [SMHP],hydrolysis score from MALDI-TOF screening,37° C.,0 (a score of 0 if no trace of the product of hydrolysis was seen after 8 hours of incubation)
same,hydrolysis score from MALDI-TOF screening,45° C.,0 (a score of 0 if no trace of the product of hydrolysis was seen after 8 hours of incubation)
Ac-GASMHQKFL-NH2 [SMHQ],hydrolysis score from MALDI-TOF screening,37° C.,0 (a score of 0 if no trace of the product of hydrolysis was seen after 8 hours of incubation)
same,hydrolysis score from MALDI-TOF screening,45° C.,0 (a score of 0 if no trace of the product of hydrolysis was seen after 8 hours of incubation)
Ac-GASMHRKFL-NH2 [SMHR],hydrolysis score from MALDI-TOF screening,37° C.,4 (a score of 4 for detection at 6 hours)
same,hydrolysis score from MALDI-TOF screening,45° C.,6 (a score of 6 for detection at 4 hours)
Ac-GASMHSKFL-NH2 [SMHS],hydrolysis score from MALDI-TOF screening,37° C.,0 (a score of 0 if no trace of the product of hydrolysis was seen after 8 hours of incubation)
same,hydrolysis score from MALDI-TOF screening,45° C.,3 (a score of 3 for detection at 8 hours)
Ac-GASMHTKFL-NH2 [SMHT],hydrolysis score from MALDI-TOF screening,37° C.,0 (a score of 0 if no trace of the product of hydrolysis was seen after 8 hours of incubation)
same,hydrolysis score from MALDI-TOF screening,45° C.,0 (a score of 0 if no trace of the product of hydrolysis was seen after 8 hours of incubation)
Ac-GASMHVKFL-NH2 [SMHV],hydrolysis score from MALDI-TOF screening,37° C.,3 (a score of 3 for detection at 8 hours)
same,hydrolysis score from MALDI-TOF screening,45° C.,6 (a score of 6 for detection at 4 hours)
Ac-GASMHWKFL-NH2 [SMHW],hydrolysis score from MALDI-TOF screening,37° C.,4 (a score of 4 for detection at 6 hours)
same,hydrolysis score from MALDI-TOF screening,45° C.,6 (a score of 6 for detection at 4 hours)
Ac-GASMHYKFL-NH2 [SMHY],hydrolysis score from MALDI-TOF screening,37° C.,3 (a score of 3 for detection at 8 hours)
same,hydrolysis score from MALDI-TOF screening,45° C.,4 (a score of 4 for detection at 6 hours)
Ac-GASNHAKFL-NH2 [SNHA],hydrolysis score from MALDI-TOF screening,37° C.,0 (a score of 0 if no trace of the product of hydrolysis was seen after 8 hours of incubation)
same,hydrolysis score from MALDI-TOF screening,45° C.,0 (a score of 0 if no trace of the product of hydrolysis was seen after 8 hours of incubation)
Ac-GASNHDKFL-NH2 [SNHD],hydrolysis score from MALDI-TOF screening,37° C.,0 (a score of 0 if no trace of the product of hydrolysis was seen after 8 hours of incubation)
same,hydrolysis score from MALDI-TOF screening,45° C.,0 (a score of 0 if no trace of the product of hydrolysis was seen after 8 hours of incubation)
Ac-GASNHEKFL-NH2 [SNHE],hydrolysis score from MALDI-TOF screening,37° C.,0 (a score of 0 if no trace of the product of hydrolysis was seen after 8 hours of incubation)
same,hydrolysis score from MALDI-TOF screening,45° C.,0 (a score of 0 if no trace of the product of hydrolysis was seen after 8 hours of incubation)
Ac-GASNHFKFL-NH2 [SNHF],hydrolysis score from MALDI-TOF screening,37° C.,3 (a score of 3 for detection at 8 hours)
same,hydrolysis score from MALDI-TOF screening,45° C.,3 (a score of 3 for detection at 8 hours)
Ac-GASNHGKFL-NH2 [SNHG],hydrolysis score from MALDI-TOF screening,37° C.,0 (a score of 0 if no trace of the product of hydrolysis was seen after 8 hours of incubation)
same,hydrolysis score from MALDI-TOF screening,45° C.,0 (a score of 0 if no trace of the product of hydrolysis was seen after 8 hours of incubation)
Ac-GASNHHKFL-NH2 [SNHH],hydrolysis score from MALDI-TOF screening,37° C.,0 (a score of 0 if no trace of the product of hydrolysis was seen after 8 hours of incubation)
same,hydrolysis score from MALDI-TOF screening,45° C.,3 (a score of 3 for detection at 8 hours)
Ac-GASNHIKFL-NH2 [SNHI],hydrolysis score from MALDI-TOF screening,37° C.,4 (a score of 4 for detection at 6 hours)
same,hydrolysis score from MALDI-TOF screening,45° C.,4 (a score of 4 for detection at 6 hours)
Ac-GASNHKKFL-NH2 [SNHK],hydrolysis score from MALDI-TOF screening,37° C.,4 (a score of 4 for detection at 6 hours)
same,hydrolysis score from MALDI-TOF screening,45° C.,4 (a score of 4 for detection at 6 hours)
Ac-GASNHLKFL-NH2 [SNHL],hydrolysis score from MALDI-TOF screening,37° C.,4 (a score of 4 for detection at 6 hours)
same,hydrolysis score from MALDI-TOF screening,45° C.,4 (a score of 4 for detection at 6 hours)
Ac-GASNHMKFL-NH2 [SNHM],hydrolysis score from MALDI-TOF screening,37° C.,0 (a score of 0 if no trace of the product of hydrolysis was seen after 8 hours of incubation)
same,hydrolysis score from MALDI-TOF screening,45° C.,0 (a score of 0 if no trace of the product of hydrolysis was seen after 8 hours of incubation)
Ac-GASNHNKFL-NH2 [SNHN],hydrolysis score from MALDI-TOF screening,37° C.,0 (a score of 0 if no trace of the product of hydrolysis was seen after 8 hours of incubation)
same,hydrolysis score from MALDI-TOF screening,45° C.,0 (a score of 0 if no trace of the product of hydrolysis was seen after 8 hours of incubation)
Ac-GASNHPKFL-NH2 [SNHP],hydrolysis score from MALDI-TOF screening,37° C.,0 (a score of 0 if no trace of the product of hydrolysis was seen after 8 hours of incubation)
same,hydrolysis score from MALDI-TOF screening,45° C.,0 (a score of 0 if no trace of the product of hydrolysis was seen after 8 hours of incubation)
Ac-GASNHQKFL-NH2 [SNHQ],hydrolysis score from MALDI-TOF screening,37° C.,0 (a score of 0 if no trace of the product of hydrolysis was seen after 8 hours of incubation)
same,hydrolysis score from MALDI-TOF screening,45° C.,0 (a score of 0 if no trace of the product of hydrolysis was seen after 8 hours of incubation)
Ac-GASNHRKFL-NH2 [SNHR],hydrolysis score from MALDI-TOF screening,37° C.,6 (a score of 6 for detection at 4 hours)
same,hydrolysis score from MALDI-TOF screening,45° C.,6 (a score of 6 for detection at 4 hours)
